Data reported in ChEMBL document CHEMBL3792317, “Novel tetrazoloquinoline-rhodanine conjugates: Highly efficient synthesis and biological evaluation” (Bioorg Med Chem Lett, 2016).
≈ marks a conversion by molar mass, not a printed value.

Key:
Candida albicans = assay: Antifungal activity against Candida albicans NCIM 3471 after 48 hrs by agar cup plate method; assay type: functional; conditions: NCIM 3471, 48 h
[1] = test system: Mycobacterium tuberculosis; assay: Antitubercular activity against Mycobacterium tuberculosis H37Ra ATCC 25177 at 10 ug/ml incubated for 40 mins by XTT Reduction Menadione Assay; assay type: functional; conditions: H37Ra ATCC 25177, 40 min, read-out: GI
[2] = test system: Mycobacterium bovis BCG str. ATCC 35743; assay: Antitubercular activity against dormant Mycobacterium bovis BCG ATCC 35743 at 30 ug/ml incubated for 40 mins by XTT Reduction Menadione Assay; assay type: functional
[3] = test system: Mycobacterium bovis BCG str. ATCC 35743; assay: Antitubercular activity against dormant Mycobacterium bovis BCG ATCC 35743 at 3 ug/ml incubated for 40 mins by XTT Reduction Menadione Assay; assay type: functional
Cryptococcus neoformans = assay: Antifungal activity against Cryptococcus neoformans NCIM 576 after 48 hrs by agar cup plate method; assay type: functional; conditions: NCIM 576, 48 h
Fusarium oxysporum = assay: Antifungal activity against Fusarium oxysporum NCIM 1332 after 48 hrs by agar cup plate method; assay type: functional; conditions: NCIM 1332, 48 h
Aspergillus flavus = assay: Antifungal activity against Aspergillus flavus NCIM 539 after 48 hrs by agar cup plate method; assay type: functional; conditions: NCIM 539, 48 h
Aspergillus niger = assay: Antifungal activity against Aspergillus niger NCIM 1196 after 48 hrs by agar cup plate method; assay type: functional; conditions: NCIM 1196, 48 h
[4] = Antitubercular activity against Mycobacterium bovis BCG ATCC 35743 incubated for 40 mins by XTT Reduction Menadione Assay; assay type: functional, Mycobacterium bovis BCG str. ATCC 35743; conditions: Mycobacterium tuberculosis variant bovis BCG, ATCC 35743, 40 min
[5] = test system: Mycobacterium tuberculosis; assay: Antitubercular activity against Mycobacterium tuberculosis H37Ra ATCC 25177 incubated for 40 mins by XTT Reduction Menadione Assay; assay type: functional; conditions: H37Ra ATCC 25177, 40 min
[6] = test system: Mycobacterium tuberculosis; assay: Antitubercular activity against Mycobacterium tuberculosis H37Ra ATCC 25177 at 3 ug/ml incubated for 40 mins by XTT Reduction Menadione Assay; assay type: functional; conditions: H37Ra ATCC 25177, 40 min, read-out: GI
[7] = test system: Mycobacterium bovis BCG str. ATCC 35743; assay: Antitubercular activity against dormant Mycobacterium bovis BCG ATCC 35743 at 10 ug/ml incubated for 40 mins by XTT Reduction Menadione Assay; assay type: functional
[8] = test system: Mycobacterium tuberculosis; assay: Antitubercular activity against Mycobacterium tuberculosis H37Ra ATCC 25177 at 30 ug/ml incubated for 40 mins by XTT Reduction Menadione Assay; assay type: functional; conditions: H37Ra ATCC 25177, 40 min, read-out: GI
[9] = test system: Mycobacterium tuberculosis; assay: Antitubercular activity against dormant Mycobacterium tuberculosis H37Ra ATCC 25177 incubated for 40 mins by XTT Reduction Menadione Assay; assay type: functional; conditions: H37Ra ATCC 25177, 40 min
Staphylococcus aureus = assay: Antibacterial activity against Staphylococcus aureus after 18 hrs by broth dilution method; assay type: functional
[10] = Cytotoxicity against human THP1 cells after 48 hrs by MTT assay; assay type: cell-based, THP-1; conditions: for GI50 at 48 h: THP1 cells; for GI90: thp-1, 48 h
[11] = Cytotoxicity against human PANC1 cells after 48 hrs by MTT assay; assay type: cell-based, PANC-1; conditions: for GI50 at 48 h: PANC1 cells; for GI90: panc-1, 48 h
Escherichia coli = assay: Antibacterial activity against Escherichia coli after 18 hrs by broth dilution method; assay type: functional
[12] = test system: Mycobacterium tuberculosis; assay: Antitubercular activity against active Mycobacterium tuberculosis H37Ra ATCC 25177 incubated for 40 mins by XTT Reduction Menadione Assay; assay type: functional; conditions: H37Ra ATCC 25177, 40 min
Pseudomonas fluorescens = assay: Antibacterial activity against Pseudomonas fluorescens after 18 hrs by broth dilution method; assay type: functional
[13] = (§1) Cytotoxicity against human A549 cells after 48 hrs by MTT assay; assay type: cell-based; conditions: A549 cells
A549 = assay: as §1; assay type: cell-based; conditions: a549, 48 h
[14] = (§2) Cytotoxicity against human HeLa cells after 48 hrs by MTT assay; assay type: cell-based; conditions: HeLa cells
HeLa = assay: as §2; assay type: cell-based; conditions: hela, 48 h
Bacillus subtilis = assay: Antibacterial activity against Bacillus subtilis after 18 hrs by broth dilution method; assay type: functional

COc1ccc2c(c1)cc(/C=C1\SC(=S)N(CC(=O)O)C1=O)c1nnnn12
MIC (Candida albicans): 50 µg/mL (≈ 125 µM)
inhibition of growth at 10 µg/mL [1]: 0.62%
growth inhibition (GI) [2]: 49.8%
growth inhibition (GI) [3]: -9.36%
MIC (Cryptococcus neoformans): 150 µg/mL (≈ 374 µM)
MIC (Fusarium oxysporum): 100 µg/mL (≈ 249 µM)
MIC (Aspergillus flavus): 150 µg/mL (≈ 374 µM)
MIC (Aspergillus niger): 50 µg/mL (≈ 125 µM)
MIC [4]: > 250 µg/mL
MIC [5]: > 250 µg/mL
inhibition of growth at 3 µg/mL [6]: 7.3%
growth inhibition (GI) [7]: 32.1%
inhibition of growth at 30 µg/mL [8]: 38%

Cc1cccc2cc(/C=C3\SC(=S)NC3=O)c3nnnn3c12
MIC (Candida albicans): 25 µg/mL (≈ 76.4 µM)
inhibition of growth at 10 µg/mL [1]: 16.7%
IC90 [9]: 148 µg/mL (≈ 453 µM)
growth inhibition (GI) [2]: 82.4%
growth inhibition (GI) [3]: 64%
MIC (Cryptococcus neoformans): 75 µg/mL (≈ 229 µM)
MIC (Staphylococcus aureus): 127 µg/mL (≈ 388 µM)
GI50 at 48 h [10]: > 100 µg/mL
GI90 [10]: > 100 µg/mL
GI50 at 48 h [11]: > 100 µg/mL
GI90 [11]: > 100 µg/mL
MIC (Fusarium oxysporum): 100 µg/mL (≈ 305 µM)
MIC (Escherichia coli): 173 µg/mL (≈ 529 µM)
MIC (Aspergillus flavus): 50 µg/mL (≈ 153 µM)
IC90 [12]: > 250 µg/mL
MIC (Pseudomonas fluorescens): 148 µg/mL (≈ 451 µM)
GI50 at 48 h [13]: > 100 µg/mL
GI90 (A549): > 100 µg/mL
MIC (Aspergillus niger): 25 µg/mL (≈ 76.4 µM)
MIC [4]: > 250 µg/mL
GI50 at 48 h [14]: > 100 µg/mL
GI90 (HeLa): > 100 µg/mL
MIC (Bacillus subtilis): 88.8 µg/mL (≈ 271 µM)
MIC [5]: 148 µg/mL (≈ 453 µM)
inhibition of growth at 3 µg/mL [6]: -9.62%
growth inhibition (GI) [7]: 63.3%
inhibition of growth at 30 µg/mL [8]: 40.3%

Cc1cccc2cc(/C=C3\SC(=S)N(CCC(=O)O)C3=O)c3nnnn3c12
MIC (Candida albicans): 100 µg/mL (≈ 250 µM)
inhibition of growth at 10 µg/mL [1]: 15.5%
growth inhibition (GI) [2]: -8.69%
growth inhibition (GI) [3]: -8.42%
MIC (Cryptococcus neoformans): 50 µg/mL (≈ 125 µM)
MIC (Fusarium oxysporum): 100 µg/mL (≈ 250 µM)
MIC (Aspergillus flavus): 50 µg/mL (≈ 125 µM)
MIC (Aspergillus niger): 75 µg/mL (≈ 188 µM)
MIC [4]: 198 µg/mL (≈ 495 µM)
MIC [5]: 192 µg/mL (≈ 481 µM)
inhibition of growth at 3 µg/mL [6]: -0.39%
growth inhibition (GI) [7]: -11.4%
inhibition of growth at 30 µg/mL [8]: 36.9%

CC1(C)S[C@@H]2[C@H](NC(=O)[C@H](N)c3ccccc3)C(=O)N2[C@H]1C(=O)O [AMPICILLIN]
MIC (Staphylococcus aureus): 1 µg/mL (≈ 2.86 µM)
MIC (Escherichia coli): 1.46 µg/mL (≈ 4.18 µM)
MIC (Pseudomonas fluorescens): 4.36 µg/mL (≈ 12.5 µM)
MIC (Bacillus subtilis): 10.3 µg/mL (≈ 29.5 µM)

O=C(O)CCN1C(=O)/C(=C/c2cc3ccccc3n3nnnc23)SC1=S
MIC (Candida albicans): 100 µg/mL (≈ 259 µM)
inhibition of growth at 10 µg/mL [1]: 17.7%
growth inhibition (GI) [2]: 47.9%
growth inhibition (GI) [3]: 18.8%
MIC (Cryptococcus neoformans): 175 µg/mL (≈ 454 µM)
MIC (Fusarium oxysporum): 125 µg/mL (≈ 324 µM)
MIC (Aspergillus flavus): 150 µg/mL (≈ 389 µM)
MIC (Aspergillus niger): 150 µg/mL (≈ 389 µM)
MIC [4]: 182 µg/mL (≈ 473 µM)
MIC [5]: 174 µg/mL (≈ 451 µM)
inhibition of growth at 3 µg/mL [6]: -1.77%
growth inhibition (GI) [7]: 21.6%
inhibition of growth at 30 µg/mL [8]: 48.9%

Cc1cccc2cc(/C=C3\SC(=S)N(CC(=O)O)C3=O)c3nnnn3c12
MIC (Candida albicans): 25 µg/mL (≈ 64.9 µM)
inhibition of growth at 10 µg/mL [1]: 36.8%
growth inhibition (GI) [2]: -58.8%
growth inhibition (GI) [3]: -41.4%
MIC (Cryptococcus neoformans): 125 µg/mL (≈ 324 µM)
MIC (Staphylococcus aureus): 106 µg/mL (≈ 274 µM)
MIC (Fusarium oxysporum): 50 µg/mL (≈ 130 µM)
MIC (Escherichia coli): 149 µg/mL (≈ 387 µM)
MIC (Aspergillus flavus): 50 µg/mL (≈ 130 µM)
MIC (Pseudomonas fluorescens): 162 µg/mL (≈ 420 µM)
MIC (Aspergillus niger): 100 µg/mL (≈ 259 µM)
MIC [4]: 86 µg/mL (≈ 223 µM)
MIC (Bacillus subtilis): 135 µg/mL (≈ 351 µM)
MIC [5]: 93.2 µg/mL (≈ 242 µM)
inhibition of growth at 3 µg/mL [6]: 44.5%
growth inhibition (GI) [7]: -46.2%
inhibition of growth at 30 µg/mL [8]: 28.2%

Cc1ccc2c(c1)cc(/C=C1\SC(=S)N(CCC(=O)O)C1=O)c1nnnn12
MIC (Candida albicans): 100 µg/mL (≈ 250 µM)
inhibition of growth at 10 µg/mL [1]: 31.6%
growth inhibition (GI) [2]: 46.4%
growth inhibition (GI) [3]: 16.2%
MIC (Cryptococcus neoformans): 50 µg/mL (≈ 125 µM)
MIC (Fusarium oxysporum): 75 µg/mL (≈ 188 µM)
MIC (Aspergillus flavus): 75 µg/mL (≈ 188 µM)
MIC (Aspergillus niger): 25 µg/mL (≈ 62.6 µM)
MIC [4]: 51.3 µg/mL (≈ 128 µM)
MIC [5]: 50.5 µg/mL (≈ 126 µM)
inhibition of growth at 3 µg/mL [6]: 1.75%
growth inhibition (GI) [7]: 13.7%
inhibition of growth at 30 µg/mL [8]: 44.7%

Cc1ccc2c(c1)cc(/C=C1\SC(=S)NC1=O)c1nnnn12
MIC (Candida albicans): 150 µg/mL (≈ 458 µM)
inhibition of growth at 10 µg/mL [1]: 23.7%
IC90 [9]: > 250 µg/mL
growth inhibition (GI) [2]: -32.7%
growth inhibition (GI) [3]: 8.79%
MIC (Cryptococcus neoformans): 25 µg/mL (≈ 76.4 µM)
MIC (Staphylococcus aureus): 159 µg/mL (≈ 486 µM)
GI50 at 48 h [10]: 63.3 µg/mL (≈ 193 µM)
GI90 [10]: 63.3 µg/mL (≈ 193 µM)
GI50 at 48 h [11]: 42 µg/mL (≈ 128 µM)
GI90 [11]: > 100 µg/mL
MIC (Fusarium oxysporum): 25 µg/mL (≈ 76.4 µM)
MIC (Escherichia coli): 167 µg/mL (≈ 511 µM)
MIC (Aspergillus flavus): 100 µg/mL (≈ 305 µM)
IC90 [12]: > 250 µg/mL
MIC (Pseudomonas fluorescens): 223 µg/mL (≈ 682 µM)
GI50 at 48 h [13]: 89.2 µg/mL (≈ 273 µM)
GI90 (A549): 63.3 µg/mL (≈ 193 µM)
MIC (Aspergillus niger): 25 µg/mL (≈ 76.4 µM)
MIC [4]: > 250 µg/mL
GI50 at 48 h [14]: > 100 µg/mL
GI90 (HeLa): > 100 µg/mL
MIC (Bacillus subtilis): 174 µg/mL (≈ 532 µM)
MIC [5]: > 250 µg/mL
inhibition of growth at 3 µg/mL [6]: 21.9%
growth inhibition (GI) [7]: -28%
inhibition of growth at 30 µg/mL [8]: 10.8%
